Measurements published in patent publication US6159940A, “Method for modulating hemopoiesis” (Immunotech Developments Inc., priority 1999, dated 2000).

What was measured:
Antibody Forming Cells = Antibody Forming Cells count (Jerne) in spleen after immunization with sheep erythrocytes; type: in vivo, (CBA×C57BL)F1 mice
Procedure: Females and male (CBA×C57BL)F1 mice, aged about 2.5 months weighing about 20 g, were irradiated with gamma-rays using a "Luch-1" apparatus. Immunological activity was assessed according to Jerne (Antibody Forming Cells count--AFC). T-cell count in spleen was determined by the method of spontaneous rosette formation with sheep erythrocytes (E-FRC). The peptide was injected intramuscularly.
Mice were irradiated in a dose of 2 Gy, the peptide was injected in the dose of 10 μg/kg according to the following scheme (to determine T-cell count by the method of spontaneous rosette formation): 1 time--an hour after the irradiation; 2 times--an hour, and a day after irradiation; 3 times--an hour, a day, and two days after the irradiation; 4 times--an hour, a day, two days and three days after the irradiation. The intact mice recieved the peptide 3 or 4 times. The control group (2 Gy) recieved injections of physiological solution according to the same schedule. On completion of the treatment course, 10 mice from each group were immunized with sheep erythrocytes (SE) and 4-5 days later AFC counts were determined in their spleens. The rest of the mice were used to find T-cell count by the method of spontaneous rosette formation. The state of the organs of immune system (spleen and thymus) in mice with radiation immunodeficiency against the background of H-Ile-Glu-Trp-OH treatment was also listed by nucleated cell counts in thymus and spleen per mg of organ weight. AFC/mg Spleen weight is presented as an average of two experiments.

CFU-S-8 and CFU-S-12 = assay: Cytostatic (Cytosine-Arabinoside)-induced cytopenia: karyocytes, CFU-S-8, CFU-S-12 in bone marrow; type: in vivo, mice; details: donor bone marrow; CA 20 mg/kg i.p. once; N 10 μg/kg once daily, three injections
Procedure: Used as a cytostatic, Cytosine-Arabinoside (CA) was intraperitoneally injected to donor mice once in the dose of 20 mg/kg. The peptide was given according to the following scheme: 10 μg/kg once daily, three injections starting from the first hour after CA. Intact mice received H-Ile-Glu-Trp-OH in the same doses and according to the same schedule. On day 8 after the cytostatic injection, determined were karyocyte count in the donor bone marrow and the content of hemopoietic progenitors of different polipotencies: committed CFU-S-8 and CFU-S-12. CFU-8 are committed stem cells which later undergo differentiation. CFU-12 are the polypotent cells, from which stem cells can be recruited (i.e. they maintain the pool of stem cells). This is a slowly proliferating cell population, mainly in G phase. That is why it is important to evaluate the effect of a preparation on the pools of both committed (CFU-8) and polypotent (CFU- 12) cells. To this end, bone marrow was extracted from donor's femoral bones and injected to lethally irradiated recipients. After the cell injections, every test group was divided into 2 subgroups: some animals were killed on day 8, the other on day 12. Spleens were taken out and the colonies were counted. The tests were carried out on 105 mice.

Effect on liver function = type: in vivo, rabbits; details: 0.01% solution for 30 days
Procedure: The tests were performed in 20 rabbits, who received injections of 0.01% H-Ile-Glu-Trp-OH solution for 30 days.

Substance: H-Ile-Glu-Trp-OH
- AFC/mg Spleen (Antibody Forming Cells; 2 Gy, 10 μg/kg i.m., 3 Injection): 152.4 ± 4.1
- AFC/mg Spleen (Antibody Forming Cells; 2 Gy, 10 μg/kg i.m., 4 Injection): 158.1 ± 7.1
- AFC/mg Spleen (Antibody Forming Cells; intact mice, 3 Injections): 621.1 ± 14.2
- AFC/mg Spleen (Antibody Forming Cells; intact mice, 4 Injections): 676.1 ± 47.5
- AFC increase (Antibody Forming Cells; intact mice, humoral response to SE): 5 times
- number of antibody forming cells (Antibody Forming Cells; irradiated mice, 3 and 4 injections): practically doubled
- Day 8 COUNT CFU-S-8 (CFU-S-8 and CFU-S-12): 2805 ± 232
- Day 8 COUNT CFU-S-12 (CFU-S-8 and CFU-S-12): 2930 ± 152
- Day 8 COUNT Karyocytes (CFU-S-8 and CFU-S-12): 23.0 ± 0.9 × 10^6
- liver function (Effect on liver function): not to have any toxic effect on the liver function
